Measurements from US6465428B1, “Pharmaceutical combinations based on dalfopristine and quinupristine, and on cefepime” (Aventis Pharma S.A., priority 1999, dated 2002).
Values after ≈ are worked out from the molar mass of the structure shown.

Key:
[1] = system: MRSA clinical isolates (Staphylococcus aureus resistant to methicillin); assay: MIC by broth macrodilution; assay type: cell-based; details: for Range of MICs: 5 clinical isolates, 24 h at 35° C.
Procedure: A panel of 10 clinical isolates of MRSA (5 MLSB-susceptible (susceptible to Macrolide-Lincosamide-Streptogramin B) and 5 C-MLSB-resistant (Constitutively Resistant to Macrolide-Lincosamide-Streptogramin B)) originating from various geographical areas were tested for their susceptibilities to quinupristin/dalfopristin and to cefepime. Two of these isolates, namely AW7 and P8, were further used for animal experiments. These both were C-MLSB-resistant.
Bacteria were grown at 35° C., either in liquid cultures in tryptic soy broth (TSB; Difco Laboratories, Detroit, Mich.) or cation supplemented Mueller Hinton Broth (MHB; Difco), or on tryptic soy agar (TSA; Difco). All growth media were supplemented with 2% of sodium chloride to increase the expression of β-lactam resistance by MRSA. Bacterial stocks were kept at −70° C. in TSB, supplemented with 10% (vol/vol) glycerol.
The MIC (minimum inhibitory concentration) of the tested antibiotics was determined by a known broth macrodilution method (D. Amsterdam, Susceptibility testing of antimicrobials in liquid media, p.52-111, In V. Lorian ed., Antibiotics in Laboratory Medicine, Williams and Wilkins, Baltimore (1996)) with final inoculum of 10^5 to 10^6 CFU/ml. The MIC was defined as the lowest antibiotic concentration that inhibited visible bacterial growth after 24 hours of incubation at 35° C.

[2] = system: C-MLSB resistant MRSA AW7 and P8; assay: Experimental endocarditis in rats; assay type: in vivo, rat; details: i.v. pump simulating human kinetics, every 12 hours
Source text: Sterile aortic vegetations were produced in female Wistar rats (weight 180 to 200 g) by the method of Heraiefet al., Infect Immunol., 37, 127-31 (1982), the disclosure of which is incorporated herein by reference in its entirety. Close by, an intravenous line containing a Silastic catheter was inserted into the jugular vein of a rat. The distal portion of the catheter was connected to a programmable pump device through a swivel, thus allowing the animals to move around their cage. The pump was set to deliver a volume of 0.2 ml of saline per hour to keep the line open until the onset of the therapy. In some experiments, quinupristine/dalfopristine was injected in combination with cefepime to the animals, with 2 infusion pumps, one to simulate human kinetics of quinupristine/dalfopristine and one to simulate human kinetics of cefepime. The 2 pumps were connected to a 2 way swivel and the drugs were infused into the animals via 2 independent jugular lines. No i.v. lines were placed in the control animals. Bacterial endocarditis was induced 24 hours after catheterization of the animals with 0.5 ml of saline containing 10^5 CFU of either of the test organisms. This inoculum was 10 times larger than the minimum inoculum producing endocarditis in 90% of the untreated rats.
Treatment was started 12 hours after bacterial challenge and lasted 3 or 5 days. The distribution of the antibiotics simulated the drug kinetics in the serum of humans. Quinupristine/dalfopristine was given to simulate treatment in humans with 7 mg/kg of the drug administered i.v. every 12 hours. Cefepime was given to simulate treatment in humans with 2 g of the drug given i.v. every 12 hours. This required, for the experiment, a total amount (mg/kg of body weight) per 12 hours of 38 mg/kg of quinupristine/dalfopristine and 142 mg/kg of cefepime.
The control rats were sacrificed at the onset of the treatment (i.e., 12 hours after inoculation) in order to measure both the frequency and the severity of valvular infection at the start of the therapy. Treated rats were sacrificed 12 hours after the low level of the last antibiotic dose of either test drug. At that time, no residual antibiotic could be detected in the blood. The valvular vegetation were dissected under sterile conditions, weighed, homogenized in 1 ml of saline, and serially diluted before being plated for colony counts. The number of colonies growing on the plates was determined after 48 hours of incubation at 35° C. Bacterial densities in the vegetations were expressed as log10 CFU/g of tissue. The minimum detection level was ≧2 log10 CFU/g of vegetation. For statistical comparisons of differences between the vegetation bacterial densities of various treatment groups, culture-negative vegetations were considered to contain 2 log10 CFU/g. […]

- Range of MICs ([1]; MRSA C-MLSB-R): >64 mg/L
- Range of MICs ([1]; MRSA MLSB-S): >64 mg/L
- MIC ([1]; Staphylococcus aureus, C-MLSB resistant MRSA AW7 and P8): 64 µg/mL (≈ 133 µM)
Structure (SMILES): CO/N=C(\C(=O)N[C@@H]1C(=O)N2C(C(=O)[O-])=C(C[N+]3(C)CCCC3)CS[C@H]12)c1csc(N)n1 [cefepime, (6R,7R)-7-(2-(2-aminothiazol-4-yl)-2(Z)-(methoxyimino)acetamido)-3-(1-methyl-pyrrolidiniomethyl)-3-cephem-4-carboxylate]
- infected rats/total rats ([2]; Strain AW-7): 6/6
- median log10 CFU/g of vegetation ([2]; Strain AW-7): (8.6) log10 CFU/g
- infected rats/total rats ([2]; Strain P8): 8/8
- median log10 CFU/g of vegetation ([2]; Strain P8): (9.0) log10 CFU/g
